Source: patent publication US8563253B2, “Means and method for diagnosing hemolytic anemia” (priority 2006, dated 2013)

System: rats
Assay: Plasma metabolite profiling (GC-MS/LC-MS) of rats treated with aniline; biomarkers for aniline-inducible hemolytic anemia
Format: in vivo, rat
Procedure: A group of each 5 male and female rats was dosed once daily with aniline at 10 and 100 mg/kg body weight per gavage over 28 days. Additional groups of each 5 male and female animals served as controls. Before starting the treatment period, animals, which were 62-64 days old when supplied, were acclimatized to the housing and environmental conditions for 7 days. All animals of the animal population were kept under the same constant temperature (20-24±3° C.) and the same constant humidity (30-70%). Each animal of the animal population was kept in a separate cage. The animals of the animal population are fed ad libitum. The food to be used was be essentially free of chemical or microbial contaminants. Drinking water was also offered ad libitum. Accordingly, the water was be free of chemical and microbial contaminants as laid down in the European Drinking Water Directive 98/83/EG. The illumination period was 12 hours light followed by 12 hours darkness (12 hours light, from 6:00 to 18:00, and 12 hours darkness, from 18:00 to 6:00).
In the morning of day 7, 14, and 28, blood was taken from the retroorbital venous plexus from fasted anaesthetized animals. From each animal, 1 ml of blood was collected with EDTA as anticoagulant. The samples were be centrifuged for generation of plasma. All plasma samples were covered with a N2 atmosphere and then stored at −80° C. until analysis.
For mass spectrometry-based metabolite profiling analyses plasma samples were extracted and a polar and a non-polar fraction was obtained. For GC-MS analysis, the non-polar fraction was hydrolyzed under acidic conditions to yield the fatty acid methyl esters. Both fractions were further derivatised with a silylating agent before analysis. In LC-MS analysis, both fractions were reconstituted in appropriate solvent mixtures. HPLC was performed by gradient elution on reversed phase separation columns. For mass spectrometric detection metanomics proprietary technology was applied which allows target and high sensitivity MRM (Multiple Reaction Monitoring) profiling in parallel to a full screen analysis. […] Moreover, several hundred further analytes giving a fingerprint of the sample are included in the methods.
Following comprehensive analytical validation steps, the data for each analyte were normalized against data from pool samples. These samples were run in parallel through the whole process to account for process variability. The significance of treatment group values specific for sex, dose group and metabolite was determined by comparing means of the treated groups to the means of the respective untreated control groups using Student's t-test. Normalized treatment group values and their significance were fed into a database for further statistics and data mining processes.
The changes of the group of plasma metabolites being indicative for hemolytic anemia after treatment of rats with aniline are shown in the following table: […]

[1] = female rats, day 7, 100 mg/kg body weight/day by gavage
[2] = female rats, day 14, 100 mg/kg body weight/day by gavage
[3] = female rats, day 28, 100 mg/kg body weight/day by gavage
[4] = male and female rats, 100 mg/kg body weight/day by gavage for 28 days
[5] = male rats, day 7, 100 mg/kg body weight/day by gavage
[6] = male rats, day 14, 100 mg/kg body weight/day by gavage
[7] = male rats, day 28, 100 mg/kg body weight/day by gavage

## Nc1ccccc1 [aniline]
[1]
  11-desoxycortisol, fold change against controls: 0.39 fold
  18-hydroxycorticosterone, fold change against controls: 0.43 fold
  cytosine, fold change against controls: 1.81 fold
  ribal (1,4-anhydro-2-deoxy-D-erythro-pent-1-enitol) (=MetID 407), fold change against controls: 1.79 fold
[2]
  11-desoxycortisol, fold change against controls: 0.71 fold
  18-hydroxycorticosterone, fold change against controls: 0.71 fold
  cytosine, fold change against controls: 1.18 fold
  ribal (1,4-anhydro-2-deoxy-D-erythro-pent-1-enitol) (=MetID 407), fold change against controls: 1.66 fold
[3]
  11-desoxycortisol, fold change against controls: 0.41 fold
  18-hydroxycorticosterone, fold change against controls: 0.47 fold
  cytosine, fold change against controls: 1.38 fold
  ribal (1,4-anhydro-2-deoxy-D-erythro-pent-1-enitol) (=MetID 407), fold change against controls: 1.59 fold
[4]
  Regulation of 11-desoxycortisol: down
  Regulation of 18-hydroxycorticosterone: down
  Regulation of cytosine: up
  Regulation of ribal (1,4-anhydro-2-deoxy-D-erythro-pent-1-enitol) (=MetID 407): up
[5]
  11-desoxycortisol, fold change against controls: 0.47 fold
  18-hydroxycorticosterone, fold change against controls: 0.34 fold
  cytosine, fold change against controls: 1.50 fold
  ribal (1,4-anhydro-2-deoxy-D-erythro-pent-1-enitol) (=MetID 407), fold change against controls: 1.68 fold
[6]
  11-desoxycortisol, fold change against controls: 0.48 fold
  18-hydroxycorticosterone, fold change against controls: 0.33 fold
  cytosine, fold change against controls: 1.17 fold
  ribal (1,4-anhydro-2-deoxy-D-erythro-pent-1-enitol) (=MetID 407), fold change against controls: 1.42 fold
[7]
  11-desoxycortisol, fold change against controls: 0.27 fold
  18-hydroxycorticosterone, fold change against controls: 0.18 fold
  cytosine, fold change against controls: 1.71 fold
  ribal (1,4-anhydro-2-deoxy-D-erythro-pent-1-enitol) (=MetID 407), fold change against controls: 1.82 fold
